Test results: patent publication EP0641563A1, “REMEDY FOR CATARACT AND PRODUCTION THEREOF” (TAISHO PHARMACEUTICAL CO. LTD, priority 1992, dated 1993)
Each block holds one compound with its values, some of them ahead of it.

What was measured:
[1] = Corneal permeability in vitro (side-by-side permeation cell)
Procedure: Corneal permeability was tested in vitro using a side-by-side type permeation cell equipped with cornea from albino rabbit. A 1% E-64c solution prepared using a buffer having the following formulation was charged in a donor cell, and the following buffer was charged in a receptor cell, and they were incubated at 34°C. The amount of E-64c permeated into the receptor cell was measured with time. The accumulative amount of the permeated E-64c was measured 1, 2, and 3 hours later.
In the same manner as in Experiment Example 4, corneal permeability of a 1% E-64d suspension (pH 7) was examined.

[2] = pH stability of 1% E-64d suspensions; assay type: physicochemical; conditions: 1% E-64d suspension
Source text: The stability of 1% E-64d suspensions adjusted to various pHs was examined. […]

cataract in Nakano mouse = test: Cataract in Nakano mouse, intraperitoneal administration; assay type: in vivo, Nakano mice
Procedure: Thirty-five Nakano mice (9 days old) were divided into three groups, and each group was intraperitoneally administered once a day with E-64d at 30 mg/kg or 100 mg/kg, or 5% gum arabic solution as a control. E-64d was suspended in 5% gum arabic solution at a concentration of 0.15% or 0.5%, respectively, and administered to the mice. After the eyes of the mice opened, opacity of the lens was observed using a slip lamp to evaluate progress of cataract.

cultured rat lenses [3] = test: Calcium ionophore-induced cataract in cultured rat lenses (opacity by image analyser); assay type: cell-based, male S.D. rats; conditions: 10 µM calcium ionophore (A23187)
Procedure: Lenses were dissected from 4-week-old male S.D. rats, and cultured for one day in (1) a basic culture medium (MEM), (2) a culture medium of (1) supplemented with 10 µM calcium ionophore (A23187), or (3) a culture medium of (2) supplemented with 4, 20, 100 or 500 µM E-64 or E-64d. Thereafter, the medium was changed as follows: (1) basic medium, (2) basic medium, and (3) basic medium with several concentrations of E-64 or E-64d, and culture was continued for 4 more days, after which opacity of lenses was measured using an image analyser. The ratio of the inhibition of the development of lens opacity by each test drug (E-64, E-64d) to that in the control group is shown in Fig. 2. […] As is evident from the results of Fig. 2, E-64 or E-64d inhibited the opacity of lens caused by calcium ionophore in a concentration-dependent manner. The inhibition effect was stronger in E-64d than in E-64, and the opacity of lens was inhibited by 50% or more at a concentration of 20 µM.

[4] = system: galactose cataract in rats; test: Galactose cataract in rats (slit lamp, Sippel grades); assay type: in vivo, male SD rats; conditions: for progression of cataract (grades of Sippel) compared with control: Wilcoxon method; for progression of cataract compared with control, time series variance analysis: up to day 28
Procedure: Three-week-old male SD rats (n=30) were bred in a breeding room having a temperature of 24±4°C and humidity of 55±15%, on Labo MR stock (manufactured by Nihon Nosan Kogyo Co., Ltd., Japan) and tap water.
As the test drugs, used were (1) 1% solution of E-64c prepared by dissolving E-64c bulk powder in 0.1N sodium hydroxide, adjusting the pH to 5 with 0.1N hydrochloric acid, and adding purified water; and (2) 1% suspension of E-64d prepared by suspending E-64d bulk powder in 0.3% Tween 80, the osmotic pressure of both of which having been adjusted to 290 mOsm/kg H₂O with sodium chloride. As a control, used was (3) physiological saline.
The test animals were pre-bred for a week, and then bred on a 25% galactose feed (solidified product of a mixture of galactose and Labo MR stock powder at the ratio of 1:3). The animals were fed for 24 hours daily for the first 7 days, and 9 hours a day from the 8th day. The test drugs were administered from the day when galactose feeding was initiated, and (1) was administered intraperitoneally once a day (100 mg/kg, 1 ml/100g as liquid), and (2) was instilled only in the right eye 4 times a day by 5 µl at a time without treatment to the left eye. The control group was instilled with (3) in the same manner as in the case of (2) without treatment to the left eye.
Lenses were observed under mydriasis using a slit lamp (SL-5D) at 7 day-intervals from the initiation of the test drug and physiological saline (control) administrations until day 28, and the progression of cataract up to the mature cataract was evaluated according to the following 8 stages of cataract grades defined by Sippel [Invest. Ophthalmol., vol. 6, 568-575 (1966)].

cultured rat lenses [5] = conditions: selenite cataract models and diabetic cataract models of cultured rat lenses; Atarashii Ganka, vol. 6, 1573-1576 (1989); cited from earlier work

E-64d in the receptor solution ([1]; pH 7): not detected | stability ([2]; in the vicinity of pH 4-6): stable | residual rate ([2]; pH 4, 40°C (4 wk), 40320 min): 96.6% | residual rate ([2]; pH 4, 60°C (1 wk), 10080 min): 98.7% | residual rate ([2]; pH 5, 40°C (4 wk), 40320 min): 99.8% | residual rate ([2]; pH 5, 60°C (1 wk), 10080 min): 98.7% | residual rate ([2]; pH 6, 40°C (4 wk), 40320 min): 95.2% | residual rate ([2]; pH 6, 60°C (1 wk), 10080 min): 97.9% | residual rate ([2]; pH 7, 40°C (4 wk), 40320 min): 75.7%
Structure (SMILES): CCOC(=O)[C@H]1O[C@@H]1C(=O)N[C@@H](CC(C)C)C(=O)NCCC(C)C [E-64d]
proportion of the group showing nuclear opacity (cataract in Nakano mouse; 30 mg/kg intraperitoneally once a day, mice 21 days old (control about 40%)): about 12% | development of nuclear opacity (cataract in Nakano mouse; 100 mg/kg intraperitoneally once a day, mice 21 days old (control about 40%)): no development of opacity was observed | degree of nuclear opacity compared with control, time-course observation (cataract in Nakano mouse; E-64d 30 or 100 mg/kg intraperitoneally once a day): limited to a smaller degree | inhibition effect on lens opacity, E-64d compared with E-64 (cultured rat lenses [3]; 4, 20, 100 or 500 µM): stronger | inhibition of the opacity of lens caused by calcium ionophore (cultured rat lenses [3]; 4, 20, 100 or 500 µM): concentration-dependent | inhibition at 20 µM (cultured rat lenses [3]; Rattus norvegicus, 120 h, 20 µM, 5 days culture, read-out: percent inhibition of lens opacity based on the opacity in the control group): ≥ 50% | progression of cataract (grades of Sippel) compared with control ([4]; 1% E-64d suspension instilled 4 times a day, 5 µl, 7 days from initiation of administration): significant delay of cataract | progression of cataract (grades of Sippel) compared with control ([4]; 1% E-64d suspension instilled 4 times a day, 5 µl, 14 days from initiation of administration): significant delay of cataract | progression of cataract (grades of Sippel) compared with control ([4]; 1% E-64d suspension instilled 4 times a day, 5 µl, 21 days from initiation of administration): delaying tendency | progression of cataract compared with control, time series variance analysis ([4]; 1% E-64d suspension instilled 4 times a day, 5 µl): significant delay of cataract

corneal permeability, dependence on pH [1]: pH-dependent
Structure (SMILES): CC(C)CCNC(=O)[C@H](CC(C)C)NC(=O)[C@H]1O[C@@H]1C(=O)O [E-64c, (+)-(2S,3S)-3[(S)-3-methyl-1-(3-methylbutylcarbamoyl)butylcarbamoyl]-2-oxiranecarboxylic acid]
effect on corneal tissue ([1]; 1% E-64c solution, pH range of 3 or below): tissue disorders causing corneal opacity were observed | progression of cataract (grades of Sippel) compared with control ([4]; 1% E-64c solution, 100 mg/kg intraperitoneally once a day, 14 days from initiation of administration): significant delay of cataract | progression of cataract compared with control, time series variance analysis ([4]; 1% E-64c solution, 100 mg/kg intraperitoneally once a day): significant delay of cataract

Structure (SMILES): CC(C)C[C@H](NC(=O)[C@H]1O[C@@H]1C(=O)O)C(=O)NCCCCNC(=N)N [E-64, trans-epoxysuccinyl-leucylamide-(4-guanidino)butane, reference compound]
effect on opacity of lens (cultured rat lenses [5]): can prevent opacity of lens | inhibition of the opacity of lens caused by calcium ionophore (cultured rat lenses [3]; 4, 20, 100 or 500 µM): concentration-dependent
